Data published in patent publication US9499493B2, “2,4-pyrimidinediamine compounds and their uses” (Rigel Pharmaceuticals, Inc., priority 2002, dated 2016).

Legend:
BMMC cells = experiment: Phosphorylation of proteins downstream of Syk kinase in the IgE receptor cascade, activated BMMC cells; format: cell-based, mouse; conditions: varying concentrations, FIG. 7
CHMC cells = experiment: Phosphorylation of proteins downstream of Syk / LYN kinase in the FcεRI cascade, activated CHMC cells; format: cell-based, human; conditions: varying concentrations, FIG. 10
[1] = test system: cultured human mast cells (CHMC); experiment: CHMC high cell density IgE activation: TNFalpha; format: cell-based; conditions: anti-IgE activation; read-out: CHMC high density TNF-alpha
Method in brief: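 IgE-sensitized CHMC at 1-2×10^6 cells/ml were pretreated with compound for 1 h at 37 °C (0.5% DMSO final), then anti-IgE-stimulated for 1 h and supernatant collected. Hexosaminidase was read with a fluorogenic substrate. Pellets were re-incubated 7 h with compound before supernatant ELISAs.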

[2] = test system: bone marrow derived mast cells (BMMC); experiment: BMMC high cell density IgE activation: histamine; format: cell-based, mouse; conditions: anti-IgE, second part of TABLE 1
Method in brief: (§1)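 IgE-sensitized BMMC (1-3×10^6 cells/ml, MT buffer) were pretreated with compound for 1 h at 37 °C in 0.5% DMSO, then stimulated with DNP-BSA (6× stimulus, 60 ng/ml) for 1 h. Supernatant was taken, and cells were re-incubated 4–5 h in WEI-conditioned medium with compound. Mediators were quantified by ELISA.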

[3] = Mouse model of allergic asthma (ovalbumin); format: in vivo; conditions: less stringent protocol; subcutaneously 70 mg/kg in 67% PEG400/33% citrate buffer, 30 minutes prior to challenge
Description: Mice are sensitized to ovalbumin (chicken protein) in the presence of an adjuvant (Alum) by the intraperitoneal route on day 0 and day 7. One week later, mice are challenged intranasally with ovalbumin on Days 14, 15 and 16 (more stringent model) or on Day 14 (less stringent model). This sensitization and challenge regimen leads to airway hyperresponsiveness and inflammation in the lungs, which are two dominant characteristics of human allergic asthma. In the mouse model, the in vivo airway responses are measured using a whole body plethysmograph which determines the PENH (enhanced Pause, Buxco Electronics). The PENH is a dimensionless value comprised of the peak inspiratory flow (PIF), peak expiratory flow (PEF), time of inspiration, time of expiration and relaxation time, and is considered a validated parameter of airway responsiveness. Responses to allergen challenge (OVA) are compared with animals challenged with saline only. Twenty-four hours after challenge, mice are exposed to increasing doses of methacholine (muscarinic receptor agonist) which results in smooth muscle contraction. […] In addition, a cellular infiltrate in the airway is observed in ovalbumin challenged mice when compared with the saline challenged mice. This cellular infiltrate is mainly characterized by eosinophils, but a smaller influx of neutrophils and mononuclear cells is also present.
The use of this model for the evaluation of small molecule inhibitors of mast cell degranulation has been validated is several ways. First, using mast cell deficient mice (W/W^v) it has been shown that the ovalbumin-induced responses are dependent upon the presence of mast cells.

[4] = test system: Salmonella-Escherichia coli tester strains
[5] = test system: bone marrow derived mast cells (BMMC); experiment: BMMC high cell density IgE activation: hexosaminidase; format: cell-based, mouse; conditions: anti-IgE, second part of TABLE 1, read-out: BMMC anti-IgE hexos. IC50
Method in brief: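 IgE-sensitized BMMC at 1-3×10^6 cells/ml preincubated 1 hour at 37° C. with compound (0.5% DMSO), then stimulated 1 hour with DNP-BSA (6× stimulus 60 ng/ml). Supernatant hexosaminidase measured with 2 mM 4-methylumbelliferyl-N-acetyl-glucosaminide substrate at 37° C., read at 5–30 minutes.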

[6] = test system: bone marrow derived mast cells (BMMC); experiment: BMMC high cell density IgE activation: IL-6; format: cell-based, mouse; conditions: anti-IgE, second part of TABLE 1
Method in brief: as §1

Compound: CNC(=O)COc1cccc(Nc2ncc(F)c(Nc3ccc4c(c3)NCCO4)n2)c1 [R921219, N4-(1,4-Benzoxazin-6-yl)-5-fluoro-N2-[3-(N-methylamino)carbonylmethyleneoxyphenyl]-2,4-pyrimidinediamine]
- phosphorylation of various proteins downstream of Syk kinase (BMMC cells): inhibit
- phosphorylation of proteins downstream of Syk kinase (CHMC cells): inhibit
- IC50 [1]: 190 nM
- IC50 [2]: 58 nM
- ovalbumin-induced airway hyperresponsiveness and cellular influx [3]: completely blocked
- Ames test result [4]: test positive in tester strain TA1537, with and without metabolic activation

Compound: CNC(=O)COc1cccc(Nc2ncc(F)c(Nc3cccc(O)c3)n2)c1 [R926508, 5-Fluoro-N4-(3-hydroxyphenyl)-N2-[3-(N-methylamino)carbonylmethyleneoxyphenyl]-2,4-pyrimidinediamine]
- IC50 [5]: 86 nM
- IC50 [6]: 26 nM
